Molecules are shown by their SMILES. Where “and” joins values, the source holds several entries; their conditions need not be identical. Identical values can stand only once. Like-named read-outs stand apart in the source and are kept apart here.

From patent publication US20240091227A1, “Use Of 2-Phenyl-6-(1H-Imidazol-1-YL) Quinazoline For Treating Neurodegenerative Diseases, Preferably Alzheimer's Disease” (ROTTAPHARM BIOTECH S.R.L., priority 2019, published 2024) come the findings set out here.

Data set [1] in a line: Brain penetration: plasma and brain levels by LC/MS/MS after oral administration. Format: in vivo, rat. To be noted: 30 mg/kg PO, fasted; for concentration at 1 h / Kp at 1 h: male, Sprague Dawley, rat, po, 30 mg/kg; for Kp at 1 h: brain/plasma. The procedure: CR 4056 was determined in rat plasma and in rat brain and plasma using a LC/MS/MS method. Male Sprague Dawley rats, Harlan, were treated orally with a CR 4056 suspension (Methocel 0.5%) at the dose of 30 mg/kg. Oral administration was performed by gastric gavage to 3 animals per group (5 ml/kg). The compound was detected in plasma and in brain 1 hour after the treatment.
Each rat brain was weighted and cut in half. Each cerebral hemisphere was weighted and homogenized with two different methodologies. One was liquidization by Ultra turrax tube drive (IKA), adding an aliquot of buffer solution (10 mM ammonium formate pH 3.5) three times the weight of the hemisphere. Then 30 μl of the extract solution were added to 0.25 ml of methanol in a 1.5 ml eppendorf tube, vortex-mixed and centrifugated for 5 min at 13500 rpm at 4° C. the supernatant was transferred to a 96-deep well plates 2 mL round (Axygen) and injected into the LC/MS/MS system. The second one was cryogenic grinding with Mikro Dismembrator (Sartorius). Each cerebral hemisphere was weighted, put in a 20 mL teflon vessel with a steel sphere (7.85 g/ml dia 10 mm) and frozen by immersion in liquid nitrogen for 5 minutes. The deep frozen brain was ground with Mikro Dismembrator at 2500 rpm for 30 sec, the freezing/grinding cycle was repeated twice. A portion of powder was accurately weighted (ca. 10 mg) in a 1.5 ml eppendorf tube, 0.25 ml of methanol were then added. After vortex-mixing and centrifugation for 5 min at 13500 rpm at 4° C., the supernatant was placed in a 96-deep well plates 2 mL round (Axygen) and injected into the LC/MS/MS system. Both methods used for homogenization gave similar results showing that the extraction efficiency was similar for both methods.
Individual plasma and brain levels and brain plasma ratio after oral administration (30 mg/kg) of CR 4056 suspension to male Sprague Dawley rats in fasted conditions (rats were scarified 60 minutes after the PO administration) are shown in the following table.

The test system of data set [2] is Transgenic 5XFAD mice. The data set can be described thus: Novel object recognition in transgenic 5XFAD mice model of Alzheimer's disease. It counts as in vivo, mouse. To be noted: 30 mg/kg orally once a day for 10 days. The text has this: FIG. 6 reports the results of Novel Object Recognition test in transgenic 5XFAD mice model of Alzheimer disease. (Obj C=new object) *p<0.0001, unpaired t Student test.
Transgenic 5XFAD mice, overexpressing the human amyloid precursor protein (APP695) with Swedish (K670N/M671L), Florida (I716V) and London (V717I) familial Alzheimer's disease (FAD) mutations, as well as human Presenilin1 (PS1) with M146L and L286V FAD mutations were used as Alzheimer's disease model. 6 months old female transgenic 5XFAD mice and wild-type controls (WT) were treated orally (gavage) with 30 mg/kg of CR4056 or vehicle once a day for a period of 10 days (n=4 WT/Vehicle, 8 WT/CR4056, 2 5XFAD/Vehicle, and 3 5XFAD/CR4056). Following repeated treatments, hippocampal-dependent memory was tested using the novel object recognition task. The object recognition test measures working and spatial memory. In the training phase, animals were placed in the arena with objects constructed from large plastic bricks. In the testing phase, one object was replaced by a novel object. Animals were returned in the arena and allowed to explore. Exploration of objects was observed and recorded. Mice should recognize that a new object has been placed and therefore explore this object for longer time.

Data set [3] concerns rats. The experiment in a line: Irwin test (neurobehavioral changes). It counts as in vivo, rat. To be noted: suprapharmacological concentrations. The text has this: These findings indicate that CR4056 could be a safe drug for treating neurodegenerative diseases, and, in particular, Alzheimer disease.
Data set [4] concerns IL-6. The experiment in a line: IL-6 gene expression in IL-1β-stimulated U373 MG astrocytoma cells (RT-PCR). Format: cell-based, human. To be noted: IL-1β 2 ng/ml. As to the method: (§1) A model of astrocytes, the human glioblastoma astrocytoma cell line U373 MG (Uppsala), was used for these experiments. Adherent cells were grown in DMEM medium supplemented with 10% FBS at 37° C. with CO2. 72 hours after plating, cells were treated for 1 h with 2-phenyl-6-(1H-imidazol-1-yl)quinazoline (CR4056) (10 μM) prepared according to EP2066653 and then stimulated with the pro-inflammatory cytokine IL-1β (2 ng/mL) for further 6 and 24 h.
(§2) At the end of incubation period, total RNA was obtained and retro-transcribed using the High-Capacity cDNA Reverse Transcription Kit (Thermo Fisher Scientific). The levels of expression of COX-2, IL-1β, IL-6 and TNFα were evaluated by RT-PCR analysis, performed using the Applied Biosystems 7500 Fast Real-Time PCR System using specific TaqMan assays and, as an endogenous control, the 18S Pre-Developed TaqMan® Assay (Thermo Fisher Scientific). The data analysis, with normalisation on 18S amplified values, was according to Thermo Fisher Scientific specific instructions for gene expression relative quantification. All individual data were the result of at least three different measurements for each sample.
(§3) Percentage of gene expression inhibition observed in U373 cells stimulated with IL-1β 2 ng/ml and exposed to 10 μM CR4056 for the indicated time.

Data set [5] deals with COX-2. The experiment in a line: COX-2 gene expression in IL-1β-stimulated U373 MG astrocytoma cells (RT-PCR). It counts as cell-based, human. To be noted: IL-1β 2 ng/ml. As to the method: as §1, §2, §3
In data set [6] the test system is TNFα. The experiment in a line: TNFα gene expression in IL-1β-stimulated U373 MG astrocytoma cells (RT-PCR). Format: cell-based, human. To be noted: IL-1β 2 ng/ml. The procedure: as §1, §2, §3
Where [7] appears, read: individual male Sprague Dawley rats, 1 h.

Turning to `c1ccc(-c2ncc3cc(-n4ccnc4)ccc3n2)cc1` [CR4056, 2-phenyl-6-(1H-imidazol-1-yl)quinazoline], the Brain/plasma ratio in data set [1] (setting [7]) is 12.4 and 11.4. The “Mean Brain Concentration” value in data set [1] (setting [7]) was 35492 ng/g and 27745 ng/g. For the same compound, in data set [1] (setting [7]), the “Plasmatic Concentration” value was 2860 ng/mL and 2430 ng/mL. The concentration at 1 h in data set [1] (brain, individual male Sprague Dawley rats, read-out: Mean Brain Concentration) is 33600 ng/g; in data set [1] (brain, male Sprague Dawley rats, read-out: Mean Brain Concentration, mean of 3 rats), 32300 ng/g; in data set [1] (plasma, individual male Sprague Dawley rats, read-out: Plasmatic Concentration), 2860 ng/mL; in data set [1] (plasma, male Sprague Dawley rats, read-out: Plasmatic Concentration, mean of 3 rats), 2720 ng/mL. The Kp at 1 h in data set [1] (individual male Sprague Dawley rats, read-out: Brain/plasma ratio) turned out to be 11.7; in data set [1] (male Sprague Dawley rats, read-out: Brain/plasma ratio, mean of 3 rats), 11.8. In addition, the “Working and spatial memory, novel object recognition” value in data set [2] is “significant improvement in the working and spatial memory”. Besides, in data set [3], the “Neurobehavioral changes (Irwin test)” value is “neither neurobehavioral changes”. Besides, the “Percentage of gene expression inhibition, IL-6” value in data set [4] (10 μM CR4056, 6 h) was “not yet modulated”; in data set [4] (10 μM CR4056, 24 h) it was 39%. Besides, the “Percentage of gene expression inhibition, COX-2” value in data set [5] (10 μM CR4056, 6 h) is on record as 45%; in data set [5] (10 μM CR4056, 24 h) it was 48%. For the same compound, the “Percentage of gene expression inhibition, TNF-α” value in data set [6] (10 μM CR4056, 6 h) is “not yet modulated”; in data set [6] (10 μM CR4056, 24 h), 52%.
